Consider 33 compounds from patent US20110269758A1, “NAPHTHYRIDINONES AS PROTEIN KINASE INHIBITORS” (MERCK PATENT GMBH, priority 2008, published 2011).

The structures appear in SMILES notation.

The experiment has as its target T1, Aurora Kinase A (Homo sapiens, UniProt O14965).
T1 construct: full length Aurora A (1-403 amino acids); purchased Carna Biosciences 05-101
T1 sequence (O14965 1-403): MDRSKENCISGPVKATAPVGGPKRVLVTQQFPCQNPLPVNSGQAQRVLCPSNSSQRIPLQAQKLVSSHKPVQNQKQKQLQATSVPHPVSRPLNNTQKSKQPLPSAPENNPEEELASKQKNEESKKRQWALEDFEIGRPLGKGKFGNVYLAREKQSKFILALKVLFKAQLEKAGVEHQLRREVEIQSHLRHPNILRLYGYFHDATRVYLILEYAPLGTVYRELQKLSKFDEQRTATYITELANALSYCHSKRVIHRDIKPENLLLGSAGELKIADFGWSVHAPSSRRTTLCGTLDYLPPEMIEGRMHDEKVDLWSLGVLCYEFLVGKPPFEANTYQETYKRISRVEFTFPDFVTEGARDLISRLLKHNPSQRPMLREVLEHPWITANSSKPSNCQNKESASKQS
The experiment in a line: Biochemical enzyme assay for Aurora A activity (Caliper LC3000 / Desktop Profiler mobility shift). Particulars: GST-Aurora A, 15 μM ATP, 90 min at 25° C.; LC3000 or Desktop Profiler; read-out: Aurora Kinase A IC50. The procedure:
The Aurora assays described here were performed on two Caliper Life Sciences systems, the LC3000 and the Desktop Profiler. These provide data on enzyme activity via measurement of the relative amounts of phosphorylated or unphosphorylated fluorescently labelled substrate peptide at the end of an enzymatic reaction. These different states of peptide are resolved by applying a potential difference across the sample. The presence of a charged phosphate group on the product (as opposed to the substrate) causes a different peptide mobility between the two peptides. This is visualized by excitation of a fluorescent label on the substrate and product peptides and represented as peaks within the analysis software.
In order to measure inhibitor activity of Aurora A inhibitors in the Caliper Life Sciences LC3000, a TTP Mosquito liquid handling instrument was used to place 0.25 μl of an appropriate concentration of inhibitor in 100% DMSO (for a dose response curve calculation) into each well of a 384-well plate.
The reaction was incubated for 90 min at 25° C., and then stopped by the addition of 70 μl of Stop buffer (100 mM HEPES pH 7.5, 0.015% Brij-35, 10 mM EDTA (Sigma, E7889)).
The plate was read on a Caliper LC 3000 in an Off-Chip mobility shift assay format, using the following parameters for a 12-sipper chip: screening pressure −1.8 psi, upstream voltage −2700, downstream voltage −1000. These conditions cause unphosphorylated substrate and phosphorylated product peptide to resolve as separate peaks allowing direct measurement of percentage of conversion of substrate to product.
The Desktop Profiler utilizes the same prinicipal as the LC 3000 for calculating percentage conversion of a substrate to product. Caliper Life Sciences provided proprietary flash frozen pre-made 384 well plates containing selected kinases. Each column in the 384 well plate contained a particular selected kinase. A second plate, the ‘substrate plate’ contained a mix of fluorescently labeled peptide substrate and ATP. These were arranged in columns so that transfer for substrate plate to enzyme plate provided the correct enzyme with the correct substrate/ATP concentration.
Compounds were added to a thawed enzyme plate in the desired format, in single concentrations. Reactions were initiated by transfer of the substrate/ATP mix from the substrate plate. The enzyme plate was incubated for 90 mins at 25° C. The reaction was stopped by addition of 70 μl of Stop Buffer (100 mM HEPES pH 7.5, 0.015% Brij-35, 10 mM EDTA (Sigma, E7889)).
Plates were read in a manner identical to that of the LC3000, and the ratio between substrate and product peaks provided the activity of the enzyme in that well.

`Nc1ccc(NC(=O)c2ccc3ccccc3c2)cc1` [Compound 15, Naphthalene-2-carboxylic acid (4-aminophenyl)-amide]: the IC50 (as a rule, the concentration needed to halve the response being measured) is 1 to 300 nM.

On to `Nc1ccc(NC(=O)c2cc(F)cc(F)c2)cc1` [Compound 11, N-(4-Aminophenyl)-3,5-difluoro-benzamide], for which the IC50 fell in the range of 1 to 300 nM.

Regarding `Nc1ccc(NC(=O)c2ccc(F)cc2C(F)(F)F)cc1` [Compound 8, N-(4-Aminophenyl)-4-fluoro-2-trifluoromethyl-benzamide], the IC50 lay within 1 to 300 nM.

Consider `CN(C)C1CCN(c2ccc3c(Nc4ccc(C(=O)Nc5ccccc5)cc4)ccnc3n2)CC1` [Compound 64], for which the IC50 was 1 to 300 nM.

For `Nc1ccc(NC(=O)c2ccc(F)c(F)c2)cc1` [Compound 10, N-(4-Aminophenyl)-3,4-difluoro-benzamide], the IC50 is 301 to 600 nM.

For `Nc1ccc(NC(=O)c2cccc(C(F)(F)F)c2F)cc1` [Compound 7, N-(4-Aminophenyl)-2-fluoro-3-trifluoromethyl-benzamide], the IC50 fell in the range of 1 to 300 nM.

As for `O=C(Nc1ccc(Nc2ccnc3[nH]c(=O)ccc23)cc1)c1cc(C(F)(F)F)cc(C(F)(F)F)c1` [Compound 49, 3,5-Bis(trifluoromethyl)-N-(4-(7-oxo-7,8-dihydro-1,8-naphthyridin-4-yl-amino)phenyl)benzamide], the IC50 was above 1000 nM.

Consider `Nc1ccc(NC(=O)c2c(Cl)cccc2Cl)cc1` [Compound 25, N-(4-Aminophenyl)-2,6-dichloro-benzamide], for which the IC50 fell in the range of 1 to 300 nM.

In the case of `O=C(Nc1ccc(Oc2ccnc3[nH]c(=O)ccc23)cc1)c1ccccc1` [Compound 46, N-(4-(7-oxo-7,8-dihydro-1,8-naphthyridin-4-yloxy)phenyl)benzamide], the IC50 lay within 1 to 300 nM.

As to `Nc1ccc(NC(=O)c2cccc3ccccc23)cc1` [Compound 24, Naphthalene-1-carboxylic acid (4-aminophenyl)-amide], the IC50 is above 1000 nM.

`Nc1ncnc(Nc2ccc(NC(=O)c3ccccc3)cc2)c1C=O` [Compound 83, N-[4-(6-Amino-5-formyl-pyrimidin-4-ylamino)-phenyl]-benzamide]: the half-inhibitory concentration (IC50) is above 1000 nM.

For the compound `O=C(Nc1ccc(Nc2ccnc3[nH]c(=O)c(C(=O)NCCO)c(-c4ccccc4)c23)cc1)c1ccc(F)c(F)c1` [Compound 78, 5-[(3,4-Difluoro-benzoylamino)-phenylamino]-2-oxo-4-phenyl-1,2-dihydro-1,8-naphthyridine-3-carboxylic acid (2-hydroxy-ethyl)-amide], the IC50 was 1 to 300 nM.

As for `O=C(Nc1ccc(Nc2ccnc3[nH]c(=O)ccc23)cc1)c1ccccc1F` [Compound 34, 2-Fluoro-N-(4-(7-oxo-7,8-dihydro-1,8-naphthyridin-4-yl-amino)phenyl)benzamide], the IC50 was in the range of 1 to 300 nM.

As for `O=C(Nc1ccc(Nc2ccnc3[nH]c(=O)c(C(=O)O)c(-c4ccccc4)c23)cc1)c1ccc(F)c(F)c1` [Compound 76, 5-[(3,4-Difluoro-benzoylamino)-phenylamino]-2-oxo-4-phenyl1,2-dihydro-1,8-naphthyridine-3-carboxylic acid], the IC50 was 1 to 300 nM.

Consider `O=C(Nc1ccc(Nc2ncnc3[nH]c(=O)c(C(=O)O)cc23)cc1)c1ccccc1` [Compound 85, 4-(4-Benzoylamino-phenylamino)-7-oxo-7,8-dihydro-pyrido[2,3-d]pyrimidine-6-carboxylic acid], for which the IC50 is above 1000 nM.

As for `Nc1ccc(NC(=O)c2ccc(Cl)c(Cl)c2)cc1` [Compound 26, N-(4-Aminophenyl)-3,4-dichloro-benzamide], the half-maximal inhibitory concentration (IC50) lay in the range of 1 to 300 nM.

As for `Nc1ccc(NC(=O)c2cc(C(F)(F)F)cc(C(F)(F)F)c2)cc1` [Compound 14, N-(4-Aminophenyl)-3,5-bis-trifluoromethyl-benzamide], the IC50 is 1 to 300 nM.

Take `O=C(Nc1ccc(Nc2ccnc3[nH]c(=O)c([N+](=O)[O-])cc23)cc1)c1ccc(F)c(F)c1` [Compound 87, 3,4-Difluoro-N-(4-(6-nitro-7-oxo-7,8-dihydro-1,8-naphthyridin-4-ylamino)phenyl)benzamide]: the IC50 is 1 to 300 nM.

On to `CC(C)(C)OC(=O)c1c(-c2ccccc2)c2c(Cl)ccnc2[nH]c1=O` [Compound 75, 5-Chloro-2-oxo-4-phenyl-1,2-dihydro-1,8-naphthyridi-3-carboxylic acid tert-butyl ester], for which the IC50 fell in the range of 1 to 300 nM.

`Nc1ccc(NC(=O)c2ccc(Cl)cc2Cl)cc1` [Compound 27, N-(4-Aminophenyl)-2,4-dichloro-benzamide]: the IC50 fell in the range of 1 to 300 nM.

With `O=C(Nc1ccc(Nc2ccnc3nc(Cl)ccc23)cc1)c1ccccc1` [Compound 63, N-(4-(7-Chloro-1,8-naphthyridin-4-yl-amino)phenyl)benzamide], the IC50 was in the range of 1 to 300 nM.

Take `Nc1ccc(NC(=O)c2cc(F)cc(C(F)(F)F)c2)cc1` [Compound 19, N-(4-Aminophenyl)-3-fluoro-5-trifluoromethyl-benzamide]: the IC50 fell in the range of 1 to 300 nM.

With `CN(C)CCNC(=O)c1c(-c2ccccc2)c2c(Nc3ccc(NC(=O)c4ccc(F)c(F)c4)cc3)ccnc2[nH]c1=O` [Compound 77, 5-[(3,4-Difluoro-benzoylamino)-phenylamino]-2-oxo-4-phenyl-1,2-dihydro-1,8-naphthyridine-3-carboxylic acid (2-dimethylamino-ethyl)-amide], the IC50 is above 1000 nM.

`COC(=O)c1cc2c(Nc3ccc(NC(=O)c4ccccc4)cc3)ncnc2[nH]c1=O` [Compound 84, 4-(4-Benzoylamino-phenylamino)-7-oxo-7,8-dihydro-pyrido[2,3-d]pyrimidine-6-carboxylic acid methyl ester]: the IC50 is above 1000 nM.

Regarding `O=C(Nc1ccc(Nc2ccnc3[nH]c(=O)c([N+](=O)[O-])cc23)cc1)c1ccc(F)cc1C(F)(F)F` [Compound 88, 4-Fluoro-2-trifluoromethyl-N-(4-(6-nitro-7-oxo-7,8-dihydro-1,8-naphthyridin-4-yl-amino)phenyl)benzamide], the IC50 was 1 to 300 nM.

Regarding `CN(C)CCCOc1ccc2c(Nc3ccc(C(=O)Nc4ccccc4)cc3)ccnc2n1` [Compound 69, N-(4-(7-(4-Dimethylamino-propoxy)-1,8-naphthyridin-4-yl-amino)phenyl)benzamide], the half-inhibitory concentration (IC50) is above 1000 nM.

`Cc1ccc(C(=O)Nc2ccc(N)cc2)cc1` [Compound 17, N-(4-Aminophenyl)-4-methyl-benzamide]: the IC50 lay in the range of 1 to 300 nM.

Regarding `Nc1ccc(NC(=O)c2ccc(C(F)(F)F)cc2F)cc1` [Compound 18, N-(4-Aminophenyl)-2-fluoro-4-trifluoromethyl-benzamide], the IC50 lay within 1 to 300 nM.

Turning to `O=C(Nc1ccc(Nc2ccnc3[nH]c(=O)ccc23)cc1)c1ccc(F)cc1F` [Compound 44, 2,4-Difluoro-N-(4-(7-oxo-7,8-dihydro-1,8-naphthyridin-4-yl-amino)phenyl)benzamide], the IC50 lay in the range of 301 to 600 nM.

Regarding `CC(C)(C)C(=O)Nc1nccc(Cl)c1C(=O)c1ccccc1` [Compound 73, N-(3-Benzoyl-4-chloropyridin-2-yl)-2,2-dimethylpropanamide], the IC50 was 1 to 300 nM.

`O=C(Nc1ccc(Nc2ccnc3[nH]c(=O)ccc23)cc1)c1ccc(F)cc1C(F)(F)F` [Compound 40, 4-Fluoro-2-trifluoromethyl-N-(4-(7-oxo-7,8-dihydro-1,8-naphthyridin-4-yl-amino)phenyl)benzamide]: the IC50 fell in the range of 1 to 300 nM.

On to `O=C(Cc1cc2c(Nc3ccc(NC(=O)c4ccc(F)c(F)c4)cc3)ccnc2[nH]c1=O)NCCO` [Compound 82], for which the IC50 was in the range of 1 to 300 nM.

For the compound `O=C(Nc1ccc(Nc2ccnc3[nH]c(=O)ccc23)cc1)c1c(F)cccc1F` [Compound 41, 2,6-Difluoro-N-(4-(7-oxo-7,8-dihydro-1,8-naphthyridin-4-yl-amino)phenyl)benzamide], the IC50 fell in the range of 1 to 300 nM.
